We go through 2 molecules from patent publication US7208517B1, “Endothelin antagonists” (Abbott Labortories, priority 1994, dated 2007).

Converted amounts (≈) assume the structure as drawn. Where only a bound is given, the exact number is not on record here.

What is called solubility is the dissolved amount per volume that the medium holds. Higher therefore signals much dissolved substance.

Data set [1] can be described thus: pH-solubility profile: maximum solubility in aqueous media at varying pH. The data set is classed as physicochemical. To be noted: aqueous buffer. From the text:
Such increased aqueous solubility, coupled with the enhanced potency resulting from decreased protein binding, might make such compounds preferred for development as parenteral agents.

Data set [2] concerns male subjects with hormone refractory prostate cancer. Briefly: Chromagranin-A levels in serum of treated subjects. The data set is classed as in vivo, human. To be noted: 2.5 mg/day. Here is the method: (§1) Studies were performed on male subjects with asymptomatic hormone refractory prostate cancer with rising PSA levels and on male subjects with symptomatic hormone refractory prostate cancer with rising PSA levels and pain. Subjects in the phase II studies had castrate levels of testosterone, either due to pharmacologic intervention, via leuprolide (Lupron®) or goserelin (Zoladex®), or via surgical castration. Subjects received ABT-627 or placebo. The following tests were conducted:
(§2) ABT-627 was formulated in 2.5 and 10 mg doses. An oral liquid formulation of ABT-627 was also prepared as follows: 1 mg/ml ABT-627, 50% glycerin, 14% alcohol, and water. Matching placebos were also provided.
The effect of ABT-627 adminstration on Chromagranin-A levels in human serum samples was determined by proprietary assay conducted at the Nichols Institute. The procedure is a two site chemiluminescence assay (ICMA) using one monoclonal antibody conjugated with biotin, another monoclonal antibody labeled with an acridinium ester, and an avidin-coated solid phase. The antibody/Chromagranin-A/antibody complex is bound to the solid phase by the avidin-biotin interaction and unbound materials are removed by washing. The bound, acridinium-labeled material produces light that is detected in a luminometer after addition of triggering agents. The Limit of Detection (LOD) for the assay was 0.07 ng/mL.

Data set [3] has the same test system. Briefly: Bone alkaline phosphatase (BAP) levels of treated subjects. The data set is classed as in vivo, human. The note with it: subjects treated versus placebo. The procedure:
as §1, §2
Markers of osteoblastic activity were assessed using […]. Bone markers include bone alkaline phosphatase (BAP), deoxypridinoline, and N-telopeptide of Type I collagen. Blood samples were collected prior to dosing on Day 1, Day 42, Day 84, Day 168, and every 28 days after Day 168, with a final collection on the last day of the study.
Bone Alkaline Phosphatase levels were determined using the bone-specific Alkphase-B® assay published by Metra Biosystems (Mountain View, Calif.).

Data set [4] shares this test system. Briefly: Visual Analog Scale (VAS) pain assessment of treated subjects. To be noted: independent of the effects of morphine. The data set is classed as in vivo, human. The procedure: Studies were performed on male subjects with asymptomatic hormone refractory prostate cancer with rising PSA levels and on male subjects with symptomatic hormone refractory prostate cancer with rising PSA levels and pain. Subjects in the phase II studies had castrate levels of testosterone, either due to pharmacologic intervention, via leuprolide (Lupron®) or goserelin (Zoladex®), or via surgical castration. Subjects received ABT-627 or placebo. The following tests were conducted: ABT-627 was formulated in 2.5 and 10 mg doses. An oral liquid formulation of ABT-627 was also prepared as follows: 1 mg/ml ABT-627, 50% glycerin, 14% alcohol, and water. Matching placebos were also provided. […] The log also contained a table on which was recorded all daily pain medication consumed by the patient. […] Clinical personnel who received the logs measured the score by measuring the distance (in mm) from the “no pain” end mark to the point where the subject's line crossed the VAS line. […] The weekly VAS scores were calculated excluding the lowest and highest score for each week and averaging the remaining five scores. […] The duration of the response, defined as the time from baseline to the last weekly assessment for which the responder definition was satisfied, was analyzed using the Kaplan-Meier methodology and logrank test.

Data set [5] shares this test system. The data set can be described thus: Interleukin-6 levels in serum of treated subjects. Type of data set: in vivo, human. To be noted: subjects treated versus placebo. Here is the method: as §1, §2
The effect of ABT-627 adminstration on Interleukin-6 levels in human serum samples was determined at Quintiles Laboratories using a sandwich immunoassay. Human serum samples and standards were incubated in microtiter plate wells coated with a monoclonal anti-IL-6 antibody, in the presence of a second monoclonal anti IL-6 antibody, linked to acetylcholinesterase. After incubation, the wells were washed, and the bound enzymatic activity was measured using a chromogenic substrate. The intensity of the color was proportional to the concentration of IL-6 in the sample or standard.

For the molecule `CCCCN(C(=O)CN1CC(c2ccc3c(c2)OCO3)C(C(=O)O)C1c1ccc(OC)cc1)c1cccnc1` (centres unmarked) [compound 531], the solubility was > 3300 µg/mL in data set [1] (pH 5.1, about 25° C.); > 3400 µg/mL in data set [1] (pH 6.5, about 25° C.); 3540 µg/mL (≈ 6.66 mM) in data set [1] (pH 7.1, about 25° C.); 3550 µg/mL (≈ 6.68 mM) in data set [1] (pH 7.6, about 25° C.).

Turning to `CCCCCN(CCCC)C(=O)CN1C[C@H](c2ccc3c(c2)OCO3)[C@@H](C(=O)O)[C@@H]1c1ccc(OC)cc1` [ABT-627], the “average change from baseline for Chromagranin-A (AUC, FIG. 8)” value in data set [2] is reported as “the average change from baseline for Chromagranin-A was higher”. In addition, the “BAP levels (AUC, FIG. 5)” value in data set [3] is “BAP levels decreased”. Moreover, the “VAS scores, pain (AUC, FIG. 3)” value in data set [4] is “VAS scores showed a decrease in pain”. Besides, the “average change in baseline for Interleukin-6 (AUC, FIG. 1)” value in data set [5] is “the average change in baseline for Interleukin-6 was lower”.
